Patent US20210108197A1, “SHRNA EXPRESSION CASSETTE, POLY[…] CARRYING SAME, AND APPLICATION THEREOF” (priority 2017, published 2021)

What was measured:
HBV [1] = experiment: In vivo pharmacodynamic experiment, HBsAg in serum; parameters: species or system HBV transgenic BALB/c; details: intravenous injection, LAM 150 mg/kg, ETV 3.2 mg/kg, intron2 3 × 10^10, intron5 1.5 × 10^11 vg/animal, relative, D 0 = 1
Protocol: (§1) Two drugs having two structures scAAV2/8-H1-shRNA2-intron2 and scAAV2/8-H1-shRNA2-intron5 were compared with the commercial drugs lamivudine and entecavir for evaluating in vivo efficacy. The administration mode was intravenous injection, and 14 days was a blood collection period. After separating serum samples, HBsAg and HBV DNA were detected. The grouping of animal experiments is shown as follows:
(§2) The experiment was conducted for total of […] (38 weeks). For the experimental method, see Example 2 “4. Expression and detection of target gene” The detection results are shown in FIG. 40 and Table 2-12 (BsAg detection), and FIG. 41 and Table 2-13 (BV DNA detection).

HBV [2] = experiment: In vivo pharmacodynamic experiment, HBV DNA in serum; parameters: species or system HBV transgenic BALB/c; details: intravenous injection, LAM 150 mg/kg, ETV 3.2 mg/kg, intron2 3 × 10^10, intron5 1.5 × 10^11 vg/animal, relative, D 0 = 1
Protocol: as §1, §2

SMILES	HBsAg detection in serum, D 0 (HBV [1])	HBsAg detection in serum, D 14 (HBV [1])	HBsAg detection in serum, D 28 (HBV [1])	HBsAg detection in serum, D 35 (HBV [1])	HBsAg detection in serum, D 49 (HBV [1])	HBsAg detection in serum, D 70 (HBV [1])	HBsAg detection in serum, D 98 (HBV [1])	HBsAg detection in serum, D 126 (HBV [1])	HBsAg detection in serum, D 154 (HBV [1])	HBsAg detection in serum, D 182 (HBV [1])	HBsAg detection in serum, D 210 (HBV [1])	HBsAg detection in serum, D 238 (HBV [1])	HBsAg detection in serum, D 266 (HBV [1])	HBV DNA detection in serum, D 0 (HBV [2])	HBV DNA detection in serum, D 14 (HBV [2])	HBV DNA detection in serum, D 28 (HBV [2])	HBV DNA detection in serum, D 35 (HBV [2])	HBV DNA detection in serum, D 49 (HBV [2])	HBV DNA detection in serum, D 70 (HBV [2])	HBV DNA detection in serum, D 98 (HBV [2])	other results
C=C1[C@H](CO)[C@@H](O)C[C@@H]1n1cnc2c(=O)[nH]c(N)nc21 [ETV, Entecavir]	1	1.51	1.55	1.8	1.4	1.33	1.34	1.48	0.75	0.81	1.57	0.83	0.94	1	8.68	1.24	1.08	1.25	3.93	1.05	HBV DNA detection in serum, D 126 (HBV [2]): 0.72; HBV DNA detection in serum, D 154 (HBV [2]): 1.06; HBV DNA detection in serum, D 182 (HBV [2]): 3.33; HBV DNA detection in serum, D 210 (HBV [2]): 5.5; HBV DNA detection in serum, D 238 (HBV [2]): 2.96; HBV DNA detection in serum, D 266 (HBV [2]): 1.55
Nc1ccn([C@@H]2CS[C@H](CO)O2)c(=O)n1 [LAM, Lamivudine]	1	0.98	0.96	1.23	1.21	1.01	1.19	1.46	0.66	0.76	1.16	0.5	0.54	1	0.69	0.87	0.72	0.68	1.26	0.41	HBV DNA detection in serum, D 126 (HBV [2]): 0.24; HBV DNA detection in serum, D 154 (HBV [2]): 0.56; HBV DNA detection in serum, D 182 (HBV [2]): 0.8; HBV DNA detection in serum, D 210 (HBV [2]): 0.28; HBV DNA detection in serum, D 238 (HBV [2]): 0.26; HBV DNA detection in serum, D 266 (HBV [2]): 0.07
